Measurements from patent EP2522350A1, “Use of the active ingredient combination of a 1-diethylaminoethyl-3-chinoxalin-2-on derivative and an oxysterol for breaking resistance in the treatment of cancer and strengthening the immune system against cancer, bacterial and viral diseases, autoimmune diseases, increased stress and …” (Immunopharm AG, priority 2011, dated 2012).

Experiment: ORAC value (Oxygen Radical Absorbing Capacity)
Conditions: ratio to other antioxidants; no test described

SMILES: CCN(CC)CCn1c(=O)c(Cc2ccc(OC)cc2)nc2ccccc21 [Caroverin, 1-(2-Diethylaminoethyl)-3-(p-methoxy-benzyl)-1,2-dihydrochinoxalin-2-on]
- ORAC-Wert, höher gegenüber allen anderen bekannten Antioxidantien wie Vitamin C, E oder Glutathion: ≤ 1000 fach
